Measured values from US6706663B2, “Herbicidal 3-heterocyclic substituted benzisothiazole and benzisoxazole compounds” (Wyeth, priority 2000, dated 2004).

Legend:
[1] = tested on: GLXMAW (Soybean, Williams); assay: Preemergence herbicidal evaluation; type: in vivo, Glycine max, (L.) Merr. cv Williams; conditions: rated 4-5 weeks after treatment
[2] = tested on: CHEAL (Chenopodium album); assay: Postemergence herbicidal evaluation; type: in vivo, L.; conditions: postemergence
How it was run: (§1)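 Visual 0–9 injury scores versus control plants, covering stand, vigour, malformation, size, chlorosis and general appearance, taken four to five weeks post-spray and averaged over replicate tests. Plants were sprayed at roughly two weeks old and held on greenhouse benches.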

[3] = tested on: AMBEL (Ambrosia artemisifolia); assay: Postemergence herbicidal evaluation; type: in vivo, L.; conditions: postemergence
How it was run: as §1

[4] = tested on: CASOB (Cassia obtusifolia); assay: Postemergence herbicidal evaluation; type: in vivo, L.; conditions: postemergence
How it was run: as §1

[5] = tested on: TRZAWR (Wheat, Winter, cv Riband); assay: Preemergence herbicidal evaluation; type: in vivo, Triticum aestivum; conditions: rated 4-5 weeks after treatment
How it was run: (§2)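 Rating 0–9, visual, vs control; 4–5 wk after spraying seeded cups with compound in aq. acetone; conventional greenhouse care.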

CYPIR (Cyperus iria) = assay: Flooded paddy, preemergence weed control; type: in vivo; conditions: rated 3-4 weeks after treatment, 0-9 rating scale
How it was run: (§3)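 Silt loam, sowing depth ≤0.5 cm; permanent flood 1.5–3 cm above soil; greenhouse culture after treatment. Readout: 0-9 visual scale (stand, vigor, malformation, size, chlorosis, appearance) vs control.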

ZEAMX (Corn, Field) = assay: Preemergence herbicidal evaluation; type: in vivo, Zea mays, L.; conditions: rated 4-5 weeks after treatment
[6] = tested on: MOOVA (Monochoria vaginalis); assay: Flooded paddy, preemergence weed control; type: in vivo, Presl.; conditions: rated 3-4 weeks after treatment, 0-9 rating scale
How it was run: as §3

[7] = tested on: IPOHE (Ipomoea hederacea); assay: Preemergence herbicidal evaluation; type: in vivo, (L.) Jacq.; conditions: rated 4-5 weeks after treatment
[8] = tested on: IPOHE (Ipomoea hederacea); assay: Postemergence herbicidal evaluation; type: in vivo, (L.) Jacq.; conditions: postemergence
How it was run: as §1

ORYSAT (Rice, Tebonnet) [9] = assay: Postemergence herbicidal evaluation; type: in vivo, Oryza sativa, (L.) Tebonnet; conditions: postemergence
How it was run: as §1

[10] = tested on: ABUTH (Abutilon theophrasti); assay: Postemergence herbicidal evaluation; type: in vivo, Medic.; conditions: postemergence
How it was run: as §1

[11] = tested on: ABUTH (Abutilon theophrasti); assay: Preemergence herbicidal evaluation; type: in vivo, Medic.; conditions: rated 4-5 weeks after treatment
SETVI (Setaria viridis) = assay: Preemergence herbicidal evaluation; type: in vivo, (L.) Beau; conditions: rated 4-5 weeks after treatment
How it was run: as §2

[12] = tested on: ECHCG (Echinochloa crus-galli); assay: Preemergence herbicidal evaluation; type: in vivo, (L.) Beau; conditions: rated 4-5 weeks after treatment
How it was run: as §2

[13] = tested on: GLXMAW (Soybean, Williams); assay: Postemergence herbicidal evaluation; type: in vivo, Glycine max, (L.) Merr. cv Williams; conditions: postemergence
How it was run: as §1

[14] = tested on: CHEAL (Chenopodium album); assay: Preemergence herbicidal evaluation; type: in vivo, L.; conditions: rated 4-5 weeks after treatment
How it was run: as §2

[15] = tested on: AMBEL (Ambrosia artemisifolia); assay: Preemergence herbicidal evaluation; type: in vivo, L.; conditions: rated 4-5 weeks after treatment
How it was run: as §2

[16] = tested on: CASOB (Cassia obtusifolia); assay: Preemergence herbicidal evaluation; type: in vivo, L.; conditions: rated 4-5 weeks after treatment
How it was run: as §2

ORYSAT (Rice, Tebonnet) [17] = assay: Flooded paddy, post-transplant rice tolerance; type: in vivo, Oryza sativa, (L.) Tebonnet; conditions: flooded paddy, post-transplant rice, rated 3-4 weeks after treatment, 0-9 rating scale
How it was run: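 Scores (0-9) reflect visual injury relative to untreated plants in flooded silt loam. Each pot held two transplanted ten-day-old seedlings under 1.5 to 3 cm standing water in the greenhouse.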

CCCC1COC(c2nsc3ccc(-n4c(=O)cc(C(F)(F)F)n(C)c4=O)cc23)O1 (centres unmarked) [Compound 77, 1-methyl-3-[3-(4-propyl-1,3-dioxolan-2-yl)-1,2-benzisothiazol-5-yl]-6-(trifluoromethyl)uracil]
Preemergence herbicidal rating GLXMAW ([1]; Rate 0.0620 kg/ha): 4.0
Preemergence herbicidal rating GLXMAW ([1]; Rate 0.1250 kg/ha): 6.0
Preemergence herbicidal rating GLXMAW ([1]; Rate 0.2500 kg/ha): 9.0
CHEAL herbicidal rating ([2]; rate 0.0320 kg/ha): 9.0
CHEAL herbicidal rating ([2]; rate 0.0620 kg/ha): 9.0
AMBEL herbicidal rating ([3]; rate 0.0320 kg/ha): 9.0
AMBEL herbicidal rating ([3]; rate 0.0620 kg/ha): 9.0
CASOB herbicidal rating ([4]; rate 0.0320 kg/ha): 4.0
CASOB herbicidal rating ([4]; rate 0.0620 kg/ha): 6.0
Preemergence herbicidal rating TRZAWR ([5]; Rate 0.0620 kg/ha): 6.0
Preemergence herbicidal rating TRZAWR ([5]; Rate 0.1250 kg/ha): 6.0
Preemergence herbicidal rating TRZAWR ([5]; Rate 0.2500 kg/ha): 7.0
herbicidal rating, CYPIR (CYPIR (Cyperus iria); rate 0.0080 kg/ha): 0.0
herbicidal rating, CYPIR (CYPIR (Cyperus iria); rate 0.0320 kg/ha): 7.0
herbicidal rating, CYPIR (CYPIR (Cyperus iria); rate 0.1250 kg/ha): 9.0
Preemergence herbicidal rating ZEAMX (ZEAMX (Corn, Field); Rate 0.0620 kg/ha): 7.0
Preemergence herbicidal rating ZEAMX (ZEAMX (Corn, Field); Rate 0.1250 kg/ha): 7.5
Preemergence herbicidal rating ZEAMX (ZEAMX (Corn, Field); Rate 0.2500 kg/ha): 8.5
herbicidal rating, MOOVA ([6]; rate 0.0080 kg/ha): 0.0
herbicidal rating, MOOVA ([6]; rate 0.0320 kg/ha): 9.0
herbicidal rating, MOOVA ([6]; rate 0.1250 kg/ha): 9.0
Preemergence herbicidal rating IPOHE ([7]; Rate 0.0620 kg/ha): 3.0
Preemergence herbicidal rating IPOHE ([7]; Rate 0.1250 kg/ha): 4.0
Preemergence herbicidal rating IPOHE ([7]; Rate 0.2500 kg/ha): 7.5
IPOHE herbicidal rating ([8]; rate 0.0320 kg/ha): 9.0
IPOHE herbicidal rating ([8]; rate 0.0620 kg/ha): 9.0
ORYSAT herbicidal rating (ORYSAT (Rice, Tebonnet) [9]; rate 0.0320 kg/ha): 2.0
ORYSAT herbicidal rating (ORYSAT (Rice, Tebonnet) [9]; rate 0.0620 kg/ha): 4.0
ABUTH herbicidal rating ([10]; rate 0.0320 kg/ha): 9.0
ABUTH herbicidal rating ([10]; rate 0.0620 kg/ha): 9.0
Preemergence herbicidal rating ABUTH ([11]; Rate 0.0620 kg/ha): 9.0
Preemergence herbicidal rating ABUTH ([11]; Rate 0.1250 kg/ha): 9.0
Preemergence herbicidal rating ABUTH ([11]; Rate 0.2500 kg/ha): 9.0
Preemergence herbicidal rating SETVI (SETVI (Setaria viridis); Rate 0.0620 kg/ha): 8.5
Preemergence herbicidal rating SETVI (SETVI (Setaria viridis); Rate 0.1250 kg/ha): 9.0
Preemergence herbicidal rating SETVI (SETVI (Setaria viridis); Rate 0.2500 kg/ha): 9.0
Preemergence herbicidal rating ECHCG ([12]; Rate 0.0620 kg/ha): 8.5
Preemergence herbicidal rating ECHCG ([12]; Rate 0.1250 kg/ha): 9.0
Preemergence herbicidal rating ECHCG ([12]; Rate 0.2500 kg/ha): 9.0
GLXMAW herbicidal rating ([13]; rate 0.0320 kg/ha): 7.5
GLXMAW herbicidal rating ([13]; rate 0.0620 kg/ha): 8.5
Preemergence herbicidal rating CHEAL ([14]; Rate 0.0620 kg/ha): 9.0
Preemergence herbicidal rating CHEAL ([14]; Rate 0.1250 kg/ha): 9.0
Preemergence herbicidal rating CHEAL ([14]; Rate 0.2500 kg/ha): 9.0
Preemergence herbicidal rating AMBEL ([15]; Rate 0.0620 kg/ha): 8.5
Preemergence herbicidal rating AMBEL ([15]; Rate 0.1250 kg/ha): 9.0
Preemergence herbicidal rating AMBEL ([15]; Rate 0.2500 kg/ha): 9.0
Preemergence herbicidal rating CASOB ([16]; Rate 0.0620 kg/ha): 2.5
Preemergence herbicidal rating CASOB ([16]; Rate 0.1250 kg/ha): 4.5
Preemergence herbicidal rating CASOB ([16]; Rate 0.2500 kg/ha): 7.5
herbicidal rating, ORYSAT (rice tolerance) (ORYSAT (Rice, Tebonnet) [17]; rate 0.0080 kg/ha): 0.0
herbicidal rating, ORYSAT (rice tolerance) (ORYSAT (Rice, Tebonnet) [17]; rate 0.0320 kg/ha): 3.0
herbicidal rating, ORYSAT (rice tolerance) (ORYSAT (Rice, Tebonnet) [17]; rate 0.1250 kg/ha): 7.0
